In US7649013B2, “Methods of protecting against radiation injury” (priority 2003, dated 2010):
“Also recorded” adds a separate entry of the source.

Columns and labels:
[1] = test system: E2F1 in human colon cancer cells (SW480); test: E2F1 level in whole cell extracts, SDS/PAGE and enhanced chemiluminescence, colon cancer cells; type: cell-based; conditions: SW480, 2 μM, 20 minute to 4 hour exposures
Procedure: Human colon cancer cells (SW480) and normal colon cells (NCM460) are treated with β-lapachone at a concentration of 2 μM and are harvested after 20 minute, 1 hour, 2 hour, or 4 hour exposures. Whole cell extracts are prepared and resolved by SDS/PAGE. An enhanced chemiluminescence assay system (Amersham Pharmacia) is used to determine the E2F1 level. Monoclonal antibody against […] is obtained from Santa Cruz Biotechnology (Santa Cruz, Calif.). […] Elevation of E2F1 following exposure to β-lapachone persists through cell death in cancer cells.

[2] = test system: C57BL/6J inbred strain female mice; test: Survival after 8 Gy whole body γ-irradiation, intraperitoneal dosing 4 hours before or after (Example 4); type: in vivo; conditions: for No. of animals surviving at 20 days post-irradiation: 4 animals; for Death rate (%): 20 days
Procedure: (§1) β-lapachone is prepared at 10 mg/ml in 40% hydroxypropyl-beta-cyclodextrin (HPBCD).
(§2) C57BL/6J inbred strain female mice (4-5 weeks old) are used. Animals are maintained in a climate-controlled animal facility.
Animals are injected with different concentrations of β-lapachone (20 and 40 mg/kg body weight) intraperitoneally 4 hours before or after irradiation.
(§3) Whole body irradiation of animals with 8 Gy of γ-rays is carried out in air at room temperature in a gamma chamber (Gammacell 40 Exactor), at a dose-rate of 1.05 Gy/min. This radiation dose is within the range of equivalent human exposures predicted in many scenarios of radiologic or nuclear terrorist attack.
Mice are divided into the following groups (each Group comprises four mice receiving identical treatment):
Group II: Mice are injected with β-lapachone 20 mg/kg body weight 4 hours before radiation.
(§4) Group III: Mice are injected with β-lapachone 40 mg/kg body weight 4 hours before radiation.
Group IV: Mice are injected with β-lapachone 20 mg/kg body weight 4 hours after radiation.
Group V: Mice are injected with β-lapachone 40 mg/kg body weight 4 hours after radiation.
Group VI: Mice are injected with amifostine 10 mg/kg body weight 4 hours before radiation.
(§5) Animals are irradiated with 8 Gy at 1.05 Gy/min dose-rate. After irradiation mice are returned to their cage and observed on a regular basis. Exposure to γ-rays causes lethality in animals. Importantly, treatment with β-lapachone, especially at a level of 40 mg/kg prior to irradiation, diminishes the death rate.

[3] = test system: BRCA1 in human colon cancer cells (SW480); test: Relative expression of cell cycle checkpoint genes, Human Cell-cycle Checkpoint GEArray Kit; type: cell-based; conditions: SW480, 2 μM, 4 hours, vs carrier alone
Procedure: Exponentially growing human colon cancer cells (SW480) are treated with β-lapachone at 2 μM, or carrier alone control, for 4 hours. Total RNA is prepared by Trizol reagents. Relative expression levels of multiple genes involved in cell cycle checkpoint are determined with the Human Cell-cycle Checkpoint GEArray Kit (SuperArray Inc. Bethesda, Md.) (FIG. 3). The up-regulation of the E2F1 target BRCA1 in β-lapachone treated cancer cells is another indication of E2F1 activation. BRCA1 is a tumor suppressor involved in many roles within the cell including DNA repair.

dogs = conditions: p.o. daily for one month; cited from earlier work
[4] = test system: C57BL/6J inbred strain female mice; test: Survival after 8 Gy whole body γ-irradiation, intraperitoneal 40 mg/kg at varying time points (Example 5); type: in vivo; conditions: for No. of animals surviving at 68 days post-irradiation: 8 animals; for Death rate (%): 68 days
Procedure: as §1, §2
The animals are injected intraperitoneally with β-lapachone (40 mg/kg body weight) either 0.5 hour, 1 hour, or 4 hours before irradiation, or 10 minutes or 1 hour after irradiation.
as §3, with “Exactor) with” for “Exactor), at”
Mice are divided in following groups (each Group comprises eight mice receiving identical treatment):
as §4
Group IV: Mice are injected with β-lapachone 40 mg/kg body weight 1 hour before radiation.
Group V: Mice are injected with β-lapachone 40 mg/kg body weight 0.5 hours before radiation.
Group VI: Mice are injected with β-lapachone 40 mg/kg body weight 10 minutes after radiation.
Group VII: Mice are injected with β-lapachone 40 mg/kg body weight 1 hour after radiation.
as §5, with “mg/kg either 4, 1, or 0.5 hours” for “mg/kg”

rats = conditions: p.o. daily for one month; cited from earlier work
[5] = test system: C57BL/6J inbred strain female mice; test: Thymic cellularity after whole body irradiation, hematoxylin-eosin sections (Example 7a); type: in vivo; conditions: 40 mg/kg i.p. 0.5 hour before 8 Gy; day five
Procedure: β-lapachone is prepared at 10 mg/ml in 40% hydroxypropyl-beta-cyclodextrin (HPBCD). C57BL/6J inbred strain female mice (4-5 weeks old) are organized into three groups of six mice each: Group I mice receive no radiation, no β-lapachone, and no carrier; Group II mice receive radiation and are injected with carrier (40% HPBCD 4 ml/kg body weight); and Group III mice are injected intraperitoneally at 0.5 hour before irradiation with β-lapachone (40 mg/kg body weight). Whole body irradiation of animals with 8 Gy of γ-rays is carried out in air at room temperature in a gamma chamber (Gammacell 40 Exactor), with a dose-rate of 1.05 Gy/min. This radiation dose is within the range of equivalent human exposures predicted in many scenarios of radiologic or nuclear terrorist attack. Following irradiation, animals are maintained in a climate-controlled animal facility. Three mice in each of Groups I, II, and III are sacrificed on day five following irradiation, and an analysis of thymic cellularity is performed for each. The remaining mice are sacrificed on day eight following irradiation, and an analysis of thymic cellularity is performed for each. Thymic cellularity is qualitatively assessed in sections stained with hematoxylin-eosin following standard procedures.

[6] = 20 mg/kg i.p. 4 hr after Radiation 8 Gy
[7] = 20 mg/kg i.p. 4 hr before Radiation 8 Gy
[8] = 40 mg/kg i.p. 4 hr before Radiation 8 Gy
[9] = Radiation 8 Gy 4 hr → 20 mg/kg as printed (second such line of Table 1)
[10] = 40 mg/kg i.p. 10 min after Radiation 8 Gy
[11] = 40 mg/kg i.p. 0.5 hr before Radiation 8 Gy
[12] = 40 mg/kg i.p. 1 hr after Radiation 8 Gy
[13] = 40 mg/kg i.p. 1 hr before Radiation 8 Gy

CC1(C)CCC2=C(O1)c1ccccc1C(=O)C2=O [β-lapachone, 3,4-dihydro-2,2-dimethyl-2H-naphtho[1,2-b]pyran-5,6-dione]
E2F1 level [1]: Elevation of E2F1 is seen in tumor cells; also recorded: induces increased expression of E2F1 | Median survival time [2, 6]: 14 days | No. of animals surviving at 20 days post-irradiation [2, 6]: 1 | Death rate (%) [2, 6]: 75% | Median survival time [2, 7]: 13.5 days | No. of animals surviving at 20 days post-irradiation [2, 7]: 0 | Death rate (%) [2, 7]: 100% | Median survival time ([2]; 40 mg/kg i.p. 4 hr after Radiation 8 Gy): 16.4 days | Median survival time [2, 8]: 25 days | No. of animals surviving at 20 days post-irradiation [2, 8]: 3 | Death rate (%) [2, 8]: 25% | Temporal survival pattern (FIG. 5) ([2]; 20, 40 mg/kg i.p., 4 hours before or after 8 Gy, vs control decline at 10-14 days): delayed this early decline in survival | No. of animals surviving at 20 days post-irradiation [2, 9]: 0 | Death rate (%) [2, 9]: 100% | BRCA1 relative expression level [3]: induces increased expression; also recorded: up-regulation | Maximum tolerated dose (dogs): 100 mg/kg | Median survival time [4, 10]: 14 days | No. of animals surviving at 68 days post-irradiation [4, 10]: 0 | Death rate (%) [4, 10]: 100% | Median survival time ([4]; 40 mg/kg i.p. 0.5 hr before Radiation 8 Gy (no death)): >68 days | No. of animals surviving at 68 days post-irradiation [4, 11]: 8 | Death rate (%) [4, 11]: 0% | Median survival time [4, 12]: 16 days | No. of animals surviving at 68 days post-irradiation [4, 12]: 0 | Death rate (%) [4, 12]: 100% | Median survival time [4, 13]: 68 days | No. of animals surviving at 68 days post-irradiation [4, 13]: 4 | Death rate (%) [4, 13]: 50% | Median survival time [4, 8]: 21 days | No. of animals surviving at 68 days post-irradiation [4, 8]: 2 | Death rate (%) [4, 8]: 75% | Temporal survival pattern (FIG. 6) ([4]; 40 mg/kg i.p. at 0.5, 1.0 or four hours prior to 8 Gy, vs control decline at 16-20 days): delayed this early decline in survival | Maximum tolerated dose (rats): 200 mg/kg | Thymic cellularity in thymic sections (FIG. 8) [5]: preserves thymic cellularity
